# Tested on: Endogenous Huntingtin Protein
# Experiment: Endogenous Huntingtin Protein Assay (ELISA-based Meso Scale Discovery electrochemiluminescence)
# Type: cell-based
# Conditions: MSD electrochemiluminescence, Table 1
# Outline: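 Huntingtin was captured overnight at 4 °C on plates coated with 1 μg/mL MW1 (polyQ-expanded) or MAB2166 antibody and BSA-blocked. Detection used a rabbit monoclonal and then a SULFO-TAG goat anti-rabbit antibody (0.25 μg/mL, 1 h each, room temperature). Signal was read by electrochemiluminescence.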
row,SMILES,IC50
1,"CN(c1cnc(-c2ccc(-c3ccccn3)cc2O)nn1)C1CC(C)(C)NC(C)(C)C1 [Cpd 393, 2-{6-[methyl(2,2,6,6-tetramethylpiperidin-4-yl)amino]-1,2,4-triazin-3-yl}-5-(pyridin-2-yl)phenol]",≤ 100 nM
2,"CN(c1cnc(-c2ccc(-c3ccc4c(cnn4C)n3)cc2O)nn1)C1CC(C)(C)NC(C)(C)C1 [Cpd 394, 5-(1-methyl-1H-pyrazolo[4,3-b]pyridin-5-yl)-2-{6-[methyl(2,2,6,6-tetramethylpiperidin-4-yl)amino]-1,2,4-triazin-3-yl}phenol]",≤ 100 nM
3,"CN(c1cnc(-c2ccc(-c3ncccn3)cc2O)nn1)C1CC(C)(C)NC(C)(C)C1 [Cpd 402, 2-{6-[methyl(2,2,6,6-tetramethylpiperidin-4-yl)amino]-1,2,4-triazin-3-yl}-5-(pyrimidin-2-yl)phenol]",≤ 100 nM
4,"Oc1cc(-c2cn[nH]c2)ccc1-c1cnc(N2CCC(CNC3CCCOC3)C2)nn1 (centres unmarked) [Cpd 404, 2-[3-(3-{[(oxan-3-yl)amino]methyl}pyrrolidin-1-yl)-1,2,4-triazin-6-yl]-5-(1H-pyrazol-4-yl)phenol]",≤ 100 nM
5,"Oc1cc(-c2cn[nH]c2)ccc1-c1cnc(N2CCC(CNC3CC4CCC(C3)O4)C2)nn1 (centres unmarked) [Cpd 405, 2-[3-(3-{[(8-oxabicyclo[3.2.1]octan-3-yl)amino]methyl}pyrrolidin-1-yl)-1,2,4-triazin-6-yl]-5-(1H-pyrazol-4-yl)phenol]",≤ 100 nM
6,"Cn1cc(-c2ccc(-c3cnc(N4CC[C@@H](NC5CCC5)C4)nn3)c(O)c2)cn1 [Cpd 406, 2-{3-[(3R)-3-(cyclobutylamino)pyrrolidin-1-yl]-1,2,4-triazin-6-yl}-5-(1-methyl-1H-pyrazol-4-yl)phenol]",≤ 100 nM

# Results, then the compound that gave them:
row,IC50,SMILES
1,≤ 100 nM,"Oc1cc(-c2cn[nH]c2)ccc1-c1cnc(N2CCC(CNC3CCOC3)C2)nn1 (centres unmarked) [Cpd 395, 2-[3-(3-{[(oxolan-3-yl)amino]methyl}pyrrolidin-1-yl)-1,2,4-triazin-6-yl]-5-(1H-pyrazol-4-yl)phenol]"
2,≤ 100 nM,"CC1(C)CC(Nc2cnc(-c3ccc(-c4cn[nH]c4)cc3O)nn2)CC(C)(C)N1 [Cpd 396, 5-(1H-pyrazol-4-yl)-2-{6-[(2,2,6,6-tetramethylpiperidin-4-yl)amino]-1,2,4-triazin-3-yl}phenol]"
3,≤ 100 nM,"Oc1cc(-c2cn[nH]c2)ccc1-c1cnc(N2CC[C@@H](CNC3CCOCC3)C2)nn1 [Cpd 397, 2-{3-[(3S)-3-{[(oxan-4-yl)amino]methyl}pyrrolidin-1-yl]-1,2,4-triazin-6-yl}-5-(1H-pyrazol-4-yl)phenol]"
4,≤ 100 nM,"Oc1cc(-c2cn[nH]c2)ccc1-c1cnc(N2CC[C@H](CNC3CCOCC3)C2)nn1 [Cpd 398, 2-{3-[(3R)-3-{[(oxan-4-yl)amino]methyl}pyrrolidin-1-yl]-1,2,4-triazin-6-yl}-5-(1H-pyrazol-4-yl)phenol]"
5,≤ 100 nM,"Oc1cc(-c2cn[nH]c2)ccc1-c1cnc(N2CC[C@@H](NC3CCC3)C2)nn1 [Cpd 399, 2-{3-[(3R)-3-(cyclobutylamino)pyrrolidin-1-yl]-1,2,4-triazin-6-yl}-5-(1H-pyrazol-4-yl)phenol]"
6,≤ 100 nM,"Oc1cc(-c2cn[nH]c2)ccc1-c1cnc(N2CC[C@H](NC3CCC3)C2)nn1 [Cpd 400, 2-{3-[(3S)-3-(cyclobutylamino)pyrrolidin-1-yl]-1,2,4-triazin-6-yl}-5-(1H-pyrazol-4-yl)phenol]"
7,≤ 100 nM,"CC1(C)CC(Nc2cnc(-c3ccc(-n4nccn4)cc3O)nn2)CC(C)(C)N1 [Cpd 401, 2-{6-[(2,2,6,6-tetramethylpiperidin-4-yl)amino]-1,2,4-triazin-3-yl}-5-(2H-1,2,3-triazol-2-yl)phenol]"
8,≤ 100 nM,"Oc1cc(-c2cn[nH]c2)ccc1-c1cnc(N2CCC(CNC3CCOCC3F)C2)nn1 (centres unmarked) [Cpd 403, 2-[3-(3-{[(3-fluorooxan-4-yl)amino]methyl}pyrrolidin-1-yl)-1,2,4-triazin-6-yl]-5-(1H-pyrazol-4-yl)phenol]"
